Measured values: US20220401514A1, “ANTIMICROBIAL, BACTERIOPHAGE-DERIVED POLYPEPTIDES AND THEIR USE AGAINST GRAM-NEGATIVE AND ACID-FAST BACTERIA” (CONTRAFECT CORPORATION, priority 2019, published 2022)

Legend:
[1] = system: M. avium; assay: 45 hr MIC against M. avium (NTM); format: cell-based, Mycobacterium avium; conditions: M. avium Chester ATCC 700898
[2] = system: P. aeruginosa strain PAO1; assay: MIC against PAO1 in Mueller-Hinton broth with 50% human plasma or human serum; format: cell-based, Pseudomonas aeruginosa
[3] = system: Pseudomonas aeruginosa; assay: microbe, parasite or virus in culture; format: cell-based; conditions: for MIC: CAA without human serum
[4] = system: Acinetobacter baumannii; assay: microbe, parasite or virus in culture; format: cell-based
[5] = system: M. fortuitum; assay: 45 hr MIC against M. fortuitum (NTM); format: cell-based, Mycobacterium fortuitum; conditions: M. fortuitum subsp. Fortuitum da Costa Cruz. ATCC 6841
[6] = system: P. aeruginosa (CFS 1292); assay: microbe, parasite or virus in culture; format: cell-based, Pseudomonas aeruginosa
[7] = system: P. aeruginosa strain CFS-1292; assay: MIC at pH 6, pH 7 and pH 8; format: cell-based, Pseudomonas aeruginosa
Experimental: The Chp peptides were further evaluated at varying pH levels. The MIC values were determined at pH 6, pH 7, and pH 8 for 18 different Chp peptides against P. aeruginosa strain CFS-1292. […]

[8] = system: Enterobacter cloacae; assay: microbe, parasite or virus in culture; format: cell-based
In short: (§1)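 Human serum was added to CAA broth for these MIC determinations with peptides.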

[9] = system: Escherichia coli; assay: microbe, parasite or virus in culture; format: cell-based
In short: as §1

[10] = system: mature biofilms formed by P. aeruginosa strain ATCC 17647; assay: Minimal Biofilm Eradicating Concentration (MBEC), Calgary Biofilm Device, crystal violet; format: cell-based, Pseudomonas aeruginosa
Experimental: Biofilms are then washed and treated with e.g., a 2-fold dilution series of the lysin in TSBg at e.g., 37° C. for 24 hours. After treatment, wells are washed, air-dried at e.g., 37° C. and stained with e.g., 0.05% crystal violet for 10 minutes.
Determination of Minimal Biofilm Eradicating Concentrations (MBEC). […] Biofilms were washed and treated with a 2-fold dilution series of each peptide in TSBg at 37° C. for 16 hours. […] The OD600 of extracted crystal violet was determined.

[11] = system: M. intracellulare; assay: 45 hr MIC against M. intracellulare (NTM); format: cell-based, Mycobacterium intracellulare; conditions: M. intracellulare (Cuttino and McCabe) Runyon ATCC 13950
[12] = system: Acinetobacter baumannii strain 30; assay: Checkerboard assay (FICI) with antibiotics, A. baumannii; format: cell-based; design: key to FIC Index: FICI = FIC A + FIC B; ≤0.5 synergy, ≥2 antagonism; conditions: for Chp peptide FIC / Chp peptide MIC: checkerboard
[13] = system: P. aeruginosa strain CFS-1292; assay: MIC in presence of mouse, rat, rabbit and human serum ([…] each); format: cell-based, Pseudomonas aeruginosa; conditions: P. aeruginosa CFS-1292
Experimental: The activity of several Chp peptides against P. aeruginosa strain CFS-1292 in animal serum was evaluated. […] Rat, mouse, and rabbit serum were all obtained from pooled gender samples.

[14] = system: M. scrofulaceum; assay: 45 hr MIC against M. scrofulaceum (NTM); format: cell-based, Mycobacterium scrofulaceum; conditions: M. scrofulaceum Prissick and Masson ATCC 19981
[15] = P. aeruginosa isolates (n per peptide in table)
[16] = A. baumannii isolates (n per peptide in table)
[17] = E. cloacae isolates (n per peptide in table)
[18] = E. coli isolates (n per peptide in table)
[19] = in combination with Azithromycin
[20] = in combination with Ciprofloxacin
[21] = in combination with Levofloxacin
[22] = in combination with Piperacillin

MRLKMARRRYRLPRRRSRRLFSRTALRMHPRNRLRRIMRGGIRF [Chp2]
45 hr MIC [1]: 1 µg/mL
MIC [2]: 2 µg/mL
Minimal inhibitory concentration, Human Serum [2]: 2 µg/mL
MIC ([3]; P. aeruginosa 453 (Human clinical isolate, HSS), RSC 1292): 4 µg/mL
MIC ([3]; P. aeruginosa (ATCC 14213, human hip wound), RSC 1111): 4 µg/mL
MIC ([3]; P. aeruginosa (ATCC 15152, abscess in middle ear), RSC 1110): 4 µg/mL
MIC ([3]; P. aeruginosa (ATCC 15692, infected wound), RSC 489): 4 µg/mL
MIC ([3]; P. aeruginosa (ATCC 15692, infected wound), RSC 1115): 4 µg/mL
MIC ([3]; P. aeruginosa (ATCC 17646, human liver abscess), RSC 1109): 4 µg/mL
MIC ([3]; P. aeruginosa (ATCC 19142, tracheobronchial secretion), RSC 1108): 2 µg/mL
MIC ([3]; P. aeruginosa (ATCC 25102, bacteriophage host), RSC 1114): 4 µg/mL
MIC ([3]; P. aeruginosa (ATCC 27853, MIC control strain), RSC 815): 4 µg/mL
MIC ([3]; P. aeruginosa (ATCC BAA-27, lab strain), RSC 1113): 4 µg/mL
MIC ([3]; P. aeruginosa (PAO1, alternate source, HER1018), RSC 490): 4 µg/mL
MIC50 [3, 15]: 1 µg/mL
MIC100 [3, 15]: 1 µg/mL
MIC Range [3, 15]: 0.25 to 1 µg/mL
MIC50 [4, 16]: 0.5 µg/mL
MIC100 [4, 16]: 0.5 µg/mL
MIC Range [4, 16]: 0.25 to 1 µg/mL
MIC ([4]; Acinetobacter baumannii (clinical isolate HSS), RSC 30, CAA without human serum): 2 µg/mL
MIC ([4]; Acinetobacter baumannii (clinical isolate HSS), RSC 32, CAA without human serum): 2 µg/mL
MIC ([4]; Acinetobacter baumannii ATCC BAA 747, CAA supplemented with human serum): 0.125 µg/mL
45 hr MIC [5]: 2 µg/mL
Passage MIC Passage #1 (Untreated) ([6]; Passage #1, MIC of agent on untreated culture): 0.25 µg/mL
Passage MIC Passage #1 ([6]; Passage #1, colonies from spot dilution, duplicates (1),(2)): 0.25 µg/mL
Passage MIC Passage #2 (Untreated) ([6]; Passage #2, MIC of agent on untreated culture): 0.25 µg/mL
Passage MIC Passage #2 ([6]; Passage #2, colonies from spot dilution, duplicates (1),(2)): 0.25 µg/mL
Passage MIC Passage #3 (Untreated) ([6]; Passage #3, MIC of agent on untreated culture): 0.25 µg/mL
Passage MIC Passage #3 ([6]; Passage #3, colonies from spot dilution, duplicates (1),(2)): 0.25 µg/mL
Passage MIC Passage #4 (Untreated) ([6]; Passage #4, MIC of agent on untreated culture): 0.25 µg/mL
Passage MIC Passage #4 ([6]; Passage #4, colonies from spot dilution, duplicates (1),(2)): 0.25 µg/mL
Passage MIC Passage #5 (Untreated) ([6]; Passage #5, MIC of agent on untreated culture): 0.25 µg/mL
Passage MIC Passage #5 ([6]; Passage #5, colonies from spot dilution, duplicates (1),(2)): 0.25 µg/mL
MIC Center ([6]; spot dilution assay, colonies from center of clearing zone): No growth
MIC Periphery ([6]; spot dilution assay, colonies from periphery of clearing zone): 0.25 µg/mL
MIC Untreated control ([6]; spot dilution assay, untreated control): 0.25 µg/mL
propensity towards resistance ([6]; spot dilution colonies, five passages total): no propensity towards resistance
MIC ([7]; CAA media (pH 7)): 0.25 µg/mL
MIC ([7]; pH 6): 0.25 µg/mL
MIC ([7]; pH 7): 0.5 µg/mL
MIC ([7]; pH 8): 0.5 µg/mL
MIC50 [8, 17]: 0.5 µg/mL
MIC100 [8, 17]: 1 µg/mL
MIC Range [8, 17]: 0.125 to 1 µg/mL
MIC ([8]; Enterobacter cloacae (ATCC 13047, MIC control strain), RSC 1240, CAA without human serum): 4 µg/mL
MIC ([8]; Enterobacter cloacae ATCC 13047, CAA supplemented with human serum): 1 µg/mL
MIC ([9]; E. coli (ATCC 25922, MIC control strain), RSC 813, CAA without human serum): 2 µg/mL
MIC ([9]; E. coli (HM346, colon, Crohn's disease), RSC 1212, CAA without human serum): 2 µg/mL
MIC50 [9, 18]: 0.5 µg/mL
MIC100 [9, 18]: 2 µg/mL
MIC Range [9, 18]: 0.25 to 2 µg/mL
MIC ([9]; Escherichia coli ATCC 25922, CAA supplemented with human serum): 1 µg/mL
MBEC ([10]; MBEC assay format, summary statement, strain not stated there): 0.25 µg/mL
MBEC ([10]; P. aeruginosa ATCC 17647 mature biofilm, tryptic soy broth with 2% glucose): 0.25 µg/mL
45 hr MIC [11]: 0.5 µg/mL
FIC Index ([12]; Chp peptide + Amikacin): 0.281
FIC Index ([12]; Chp peptide + Azithromycin): 0.563
FIC Index ([12]; Chp peptide + Aztreonam): 0.313
FIC Index ([12]; Chp peptide + Ciprofloxacin): 0.531
FIC Index ([12]; Chp peptide + Colistin): 0.375
FIC Index ([12]; Chp peptide + Gentamicin): 0.313
FIC Index ([12]; Chp peptide + Imipenem): 0.531
FIC Index ([12]; Chp peptide + Levofloxacin): 0.5
FIC Index ([12]; Chp peptide + Meropenem): 0.375
FIC Index ([12]; Chp peptide + Piperacillin): 0.375
FIC Index ([12]; Chp peptide + Tobramycin): 0.188
Chp peptide FIC ([12]; in combination with Amikacin): 0.03125
Chp peptide MIC ([12]; in combination with Amikacin): 0.03125 µg/mL
Chp peptide FIC [12, 19]: 0.0625
Chp peptide MIC [12, 19]: 0.03125 µg/mL
Chp peptide FIC ([12]; in combination with Aztreonam): 0.0625
Chp peptide MIC ([12]; in combination with Aztreonam): 0.0625 µg/mL
Chp peptide FIC [12, 20]: 0.5
Chp peptide MIC [12, 20]: 0.5 µg/mL
Chp peptide FIC ([12]; in combination with Colistin): 0.25
Chp peptide MIC ([12]; in combination with Colistin): 0.25 µg/mL
Chp peptide FIC ([12]; in combination with Gentamicin): 0.0625
Chp peptide MIC ([12]; in combination with Gentamicin): 0.0625 µg/mL
Chp peptide FIC ([12]; in combination with Imipenem): 0.03125
Chp peptide MIC ([12]; in combination with Imipenem): 0.01562 µg/mL
Chp peptide FIC [12, 21]: 0.25
Chp peptide MIC [12, 21]: 0.25 µg/mL
Chp peptide FIC ([12]; in combination with Meropenem): 0.125
Chp peptide MIC ([12]; in combination with Meropenem): 0.125 µg/mL
Chp peptide FIC [12, 22]: 0.125
Chp peptide MIC [12, 22]: 0.125 µg/mL
Chp peptide FIC ([12]; in combination with Tobramycin): 0.0625
Chp peptide MIC ([12]; in combination with Tobramycin): 0.0625 µg/mL
MIC BALB/C Mouse Serum ([13]; BALB/C mouse serum […]): 32 µg/mL
MIC CAA ([13]; CAA): 0.5 µg/mL
MIC New Zealand White Rabbit Serum ([13]; New Zealand White rabbit serum […]): 2 µg/mL
MIC Sprague Dawley Rat Serum ([13]; Sprague Dawley rat serum […]): 2 µg/mL
MIC Human Serum ([13]; human serum […]): 0.5 µg/mL
45 hr MIC [14]: 0.5 µg/mL
